Counter-ions that a name gives are not always drawn.

Holding throughout (type): biochemical
One assay deals with T1, steroid sulfatase (STS) (Homo sapiens, UniProt P08842).
T1 sequence (P08842 22-583): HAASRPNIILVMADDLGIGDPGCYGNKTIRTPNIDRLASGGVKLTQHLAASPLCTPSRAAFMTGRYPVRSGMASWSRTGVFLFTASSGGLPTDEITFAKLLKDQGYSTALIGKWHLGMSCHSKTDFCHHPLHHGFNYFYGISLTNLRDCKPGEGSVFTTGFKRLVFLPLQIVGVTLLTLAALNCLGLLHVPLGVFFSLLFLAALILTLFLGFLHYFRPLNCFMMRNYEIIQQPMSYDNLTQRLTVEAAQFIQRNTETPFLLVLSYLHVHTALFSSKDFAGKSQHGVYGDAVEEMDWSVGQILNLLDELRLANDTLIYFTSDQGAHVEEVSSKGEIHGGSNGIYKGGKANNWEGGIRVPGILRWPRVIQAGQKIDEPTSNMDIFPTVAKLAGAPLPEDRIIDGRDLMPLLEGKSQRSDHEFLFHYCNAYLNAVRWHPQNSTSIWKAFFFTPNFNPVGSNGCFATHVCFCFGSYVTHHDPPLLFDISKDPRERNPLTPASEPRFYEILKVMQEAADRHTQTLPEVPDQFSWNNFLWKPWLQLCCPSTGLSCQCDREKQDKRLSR
In words: 3H-DHEA scintillation counting. Conditions: labelled compound; 5 µM DHEAS, pH 7.4, 37 °C.

Another assay has as its target T2, KARS (Klebsiella pneumoniae, UniProt Q9X759).
T2 sequence (Q9X759 21-577): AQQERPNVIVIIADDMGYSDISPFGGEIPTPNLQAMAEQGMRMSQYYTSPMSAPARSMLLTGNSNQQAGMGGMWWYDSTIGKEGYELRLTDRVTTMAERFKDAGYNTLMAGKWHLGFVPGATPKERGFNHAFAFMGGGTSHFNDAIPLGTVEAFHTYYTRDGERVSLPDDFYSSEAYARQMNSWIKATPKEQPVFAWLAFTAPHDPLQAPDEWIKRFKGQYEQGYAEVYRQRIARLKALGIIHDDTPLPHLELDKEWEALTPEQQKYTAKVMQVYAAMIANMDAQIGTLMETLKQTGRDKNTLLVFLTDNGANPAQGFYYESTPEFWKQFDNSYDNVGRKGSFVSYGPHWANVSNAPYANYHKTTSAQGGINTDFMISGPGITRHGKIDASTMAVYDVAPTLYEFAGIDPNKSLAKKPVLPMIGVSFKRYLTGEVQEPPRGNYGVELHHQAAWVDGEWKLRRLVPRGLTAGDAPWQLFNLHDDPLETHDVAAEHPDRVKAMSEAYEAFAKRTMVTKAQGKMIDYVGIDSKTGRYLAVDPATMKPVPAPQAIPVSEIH
Description: colorimetric assay, […] nm. Conditions: 8 mM pNCS, pH 7.5, room temperature.

The next assay has as its target T3, aryl sulfatase G (ARSG) (Homo sapiens, UniProt Q96EG1).
T3 sequence (Q96EG1 17-525): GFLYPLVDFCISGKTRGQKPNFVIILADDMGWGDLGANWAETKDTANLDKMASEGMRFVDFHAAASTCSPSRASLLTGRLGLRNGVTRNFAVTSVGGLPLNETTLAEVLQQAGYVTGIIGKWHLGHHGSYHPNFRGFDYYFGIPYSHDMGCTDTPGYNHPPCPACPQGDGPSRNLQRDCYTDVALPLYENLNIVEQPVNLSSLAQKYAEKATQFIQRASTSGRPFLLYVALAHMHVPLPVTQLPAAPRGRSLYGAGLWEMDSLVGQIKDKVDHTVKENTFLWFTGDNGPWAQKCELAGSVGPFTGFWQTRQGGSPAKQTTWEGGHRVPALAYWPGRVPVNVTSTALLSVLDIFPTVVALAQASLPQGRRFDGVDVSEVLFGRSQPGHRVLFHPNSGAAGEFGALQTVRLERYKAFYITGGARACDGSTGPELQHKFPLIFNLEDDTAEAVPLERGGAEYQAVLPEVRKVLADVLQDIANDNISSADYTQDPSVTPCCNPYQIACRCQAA
In words: colorimetric assay, […] nm. Conditions: 8 mM pNCS, 0.5 M NaOAc, pH 5.6, 37 °C.

For another assay, the target named is PARS (Pseudomonas aeruginosa, UniProt P51691). Description: colorimetric assay, […] nm. Conditions: 8 mM pNCS, pH 8.5, room temperature.
PARS, sequence (P51691 2-536): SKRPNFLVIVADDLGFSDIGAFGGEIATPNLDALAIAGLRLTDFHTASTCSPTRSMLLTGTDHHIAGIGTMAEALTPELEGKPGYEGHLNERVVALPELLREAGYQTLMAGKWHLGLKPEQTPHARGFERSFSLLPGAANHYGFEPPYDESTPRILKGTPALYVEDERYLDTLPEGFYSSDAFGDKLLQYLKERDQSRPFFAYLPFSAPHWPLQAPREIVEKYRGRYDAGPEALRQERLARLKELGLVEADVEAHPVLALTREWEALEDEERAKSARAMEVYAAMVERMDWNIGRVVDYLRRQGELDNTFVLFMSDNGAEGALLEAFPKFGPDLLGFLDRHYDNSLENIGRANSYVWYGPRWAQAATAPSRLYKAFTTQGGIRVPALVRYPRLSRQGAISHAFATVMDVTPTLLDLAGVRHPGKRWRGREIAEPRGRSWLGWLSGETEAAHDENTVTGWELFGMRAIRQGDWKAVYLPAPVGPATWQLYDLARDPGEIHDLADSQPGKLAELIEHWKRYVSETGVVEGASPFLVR

On to `C[C@]12CC[C@H](OS(=O)(=O)O)CC1=CC[C@@H]1[C@@H]2CC[C@]2(C)C(=O)CC[C@@H]12` [dehydroepiandrosterone-3-sulfate], for which the 3H-DHEA scintillation counting entry at steroid sulfatase (STS) is reported as “STS activity was determined using a radioactive dehydroepiandrosterone-3-sulfate (^3DHEAS) assay”.
For the compound `O=[N+]([O-])c1ccc(O)c(OS(=O)(=O)O)c1` [para-nitrocatechol sulfate], the “colorimetric assay, 515 nm” value was “KARS, PARS and ARSG activities were monitored using a para-nitrocatechol sulfate (pNCS) colorimetric assay” at KARS; “KARS, PARS and ARSG activities were monitored using a para-nitrocatechol sulfate (pNCS) colorimetric assay” on aryl sulfatase G (ARSG); “KARS, PARS and ARSG activities were monitored using a para-nitrocatechol sulfate (pNCS) colorimetric assay” on PARS.

Source of the values: article PMC3396293 (Bioorganic & medicinal chemistry, 2011).
